Measured values taken from PubChem BioAssay AID1963869 (Molecular Pharmacology Branch, DTP, NCI, 2024).

System: KRAS patient-derived spheroids with HUVEC/MSC, viability
Assay: Anticancer human tumor 323965-272-R-J2-PDC patient-derived pancreatic carcinoma cell line growth inhibition [KRAS2]
Details: for IC50: curve of first compound; for viability, T/C: stronger effect = lower value
Outline: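 KRAS-mutant tumor cells were grown as spheroids with HUVEC endothelial cells and human MSCs as stroma. Targeted agents were tested alone and with KRAS pathway inhibitors. Doses started at or near clinical Cmax, or 10 microM, descending half-log.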

[1] = second compound 0.1 µM, first compound 0.01 µM
[2] = second compound 0.1 µM, first compound 0.0316 µM
[3] = second compound 0.1 µM, first compound 0.1 µM
[4] = second compound 0.1 µM, first compound 0.316 µM
[5] = second compound 0.1 µM, first compound 1 µM
[6] = second compound 0.1 µM, first compound 3.16 µM
[7] = second compound 0.316 µM, first compound 0.01 µM
[8] = second compound 0.316 µM, first compound 0.0316 µM
[9] = second compound 0.316 µM, first compound 0.1 µM
[10] = second compound 0.316 µM, first compound 0.316 µM
[11] = second compound 0.316 µM, first compound 1 µM
[12] = second compound 0.316 µM, first compound 3.16 µM
[13] = second compound 1 µM, first compound 0.01 µM
[14] = second compound 1 µM, first compound 0.0316 µM
[15] = second compound 1 µM, first compound 0.1 µM
[16] = second compound 1 µM, first compound 0.316 µM
[17] = second compound 1 µM, first compound 1 µM
[18] = second compound 1 µM, first compound 3.16 µM
[19] = second compound 3.16 µM, first compound 0.01 µM
[20] = second compound 3.16 µM, first compound 0.0316 µM
[21] = second compound 3.16 µM, first compound 0.1 µM
[22] = second compound 3.16 µM, first compound 0.316 µM
[23] = second compound 3.16 µM, first compound 1 µM
[24] = second compound 3.16 µM, first compound 3.16 µM
[25] = second compound 10 µM, first compound 0.01 µM
[26] = second compound 10 µM, first compound 0.0316 µM
[27] = second compound 10 µM, first compound 0.1 µM
[28] = second compound 10 µM, first compound 0.316 µM
[29] = second compound 10 µM, first compound 1 µM
[30] = second compound 10 µM, first compound 3.16 µM
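Also: spheroids exposed to agents for 7 days.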
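For viability, T/C in this document: 100% = DMSO vehicle control viability.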

SMILES	IC50 (second compound 0.1 µM)	IC50 (second compound 0.316 µM)	IC50 (second compound 1 µM)	IC50 (second compound 3.16 µM)	IC50 (second compound 10 µM)	viability, T/C [2]	viability, T/C [3]	viability, T/C [4]	viability, T/C [5]	viability, T/C [6]	viability, T/C [8]	viability, T/C [9]	viability, T/C [10]	viability, T/C [11]	viability, T/C [12]	viability, T/C [14]	viability, T/C [15]	viability, T/C [16]	viability, T/C [17]	viability, T/C [18]	other results
CC(=O)OC12COC1CC(O)C1(C)C(=O)C(O)C3=C(C)C(OC(=O)C(O)C(NC(=O)OC(C)(C)C)c4ccccc4)CC(O)(C(OC(=O)c4ccccc4)C21)C3(C)C (stereo not given) + C=CC(=O)N1CCN(c2nc(=O)n(-c3c(C)ccnc3C(C)C)c3nc(-c4c(O)cccc4F)c(F)cc23)C(C)C1	< 10 nM	< 10 nM	< 10 nM	< 10 nM	< 10 nM	21.7%	19.9%	19.2%	18.9%	22.2%	21.5%	21.6%	19.4%	20.9%	21.1%	19.2%	19.6%	17.4%	18.7%	19.7%	viability, T/C [1]: 22.7%; viability, T/C [7]: 21.9%; viability, T/C [13]: 21.3%; viability, T/C [19]: 19.7%; viability, T/C [20]: 21.9%; viability, T/C [21]: 17.6%; viability, T/C [22]: 19.6%; viability, T/C [23]: 18.9%; viability, T/C [24]: 18.5%; viability, T/C [25]: 21.3%; viability, T/C [26]: 19.6%; viability, T/C [27]: 19.8%; viability, T/C [28]: 15.6%; viability, T/C [29]: 16%; viability, T/C [30]: 16.7%
CC1COCCN1c1cc(-c2ccnn2C)c2ccnc(-c3ccn[nH]3)c2n1 (stereo not given) + CNCc1ccccc1-c1csc(C(C)Nc2nc(C)nc3cc(OC)c(OC)cc23)c1	20.7 nM	21.4 nM	22.3 nM	12.8 nM	< 10 nM	37.6%	22.5%	20.1%	18.2%	17.9%	35.8%	20.4%	19%	16.1%	17.1%	34.3%	17.9%	17.2%	14.9%	16.1%	viability, T/C [1]: 71.4%; viability, T/C [7]: 77.8%; viability, T/C [13]: 85.8%; viability, T/C [19]: 57.1%; viability, T/C [20]: 24.2%; viability, T/C [21]: 5.14%; viability, T/C [22]: 4.3%; viability, T/C [23]: 7.85%; viability, T/C [24]: 8.8%; viability, T/C [25]: 0.18%; viability, T/C [26]: 0.13%; viability, T/C [27]: 0.13%; viability, T/C [28]: 0.12%; viability, T/C [29]: 0.25%; viability, T/C [30]: 0.19%
CC(C)NCC(C(=O)N1CCN(c2ncnc3c2C(C)CC3O)CC1)c1ccc(Cl)cc1 (stereo not given) + C=CC(=O)N1CCN(c2nc(=O)n(-c3c(C)ccnc3C(C)C)c3nc(-c4c(O)cccc4F)c(F)cc23)C(C)C1	175 nM	80.4 nM	159 nM	53.5 nM	< 31.6 nM	62.4%	56.3%	43.5%	32.4%	27.1%	56.8%	49.2%	40.2%	33%	26%	61.2%	55%	42.3%	29.8%	26.4%	viability, T/C (second compound 0.1 µM, first compound 10 µM): 23.8%; viability, T/C (second compound 0.316 µM, first compound 10 µM): 22.6%; viability, T/C (second compound 1 µM, first compound 10 µM): 27.7%; viability, T/C [20]: 52.1%; viability, T/C [21]: 47.3%; viability, T/C [22]: 37.8%; viability, T/C [23]: 28.3%; viability, T/C [24]: 26.9%; viability, T/C (second compound 3.16 µM, first compound 10 µM): 27.4%; viability, T/C [26]: 42.8%; viability, T/C [27]: 49.7%; viability, T/C [28]: 30.5%; viability, T/C [29]: 21.5%; viability, T/C [30]: 22.9%; viability, T/C (second compound 10 µM, first compound 10 µM): 18%
